Source: patent publication US10351548B2, “2-oxo-1,2-dihydropyridine-3-carboxamide compounds and their use as inhibitors of PDK1” (INTERNATIONAL SOCIETY FOR DRUG DEVELOPMENT S.R.L., priority 2015, dated 2019)

How the values were obtained:
PDK1 Direct kinase = PDK1 Direct kinase (Homo sapiens (Human), UniProt O15530); experiment: Kinase-specific FRET-based Z'-LYTE assay against PDK1 Direct kinase; format: biochemical; settings: for IC50: read-out: PDK1 IC50
Protocol: The compounds of Formula (I) and (II) were tested in the biological test named Kinase-specific Z′-LYTE® assay (Invitrogen Corporation, Life Technologies).

U87MG cells = experiment: U87MG cell proliferation, MTS assay; format: cell-based, human; settings: Homo sapiens, U-87 MG; 72 h, MTS assay; read-out: IC50 U87MG
Protocol: (§1) The U87MG cell line was obtained from the National Institute for Cancer Research of Genoa (Italy) and cultured in DMEM 10% FBS and 2 mM glutamine. To isolate GSCs, approximately 2.0×10^6 cells were suspended in 1 mL of a defined serum-free Neural Stem Cell (NSC) medium (Daniele, S., et al., Modulation of A1 and A2B adenosine receptor activity: a new strategy to sensitise glioblastoma stem cells to chemotherapy. Cell death & disease, 2014. 5(11): p. e1539). After 3-4 days of culture, the neurospheres were collected, suspended in NSC medium, dissociated into single cells, and plated for the assays. For the long-term treatment of cells, NSC or complete medium containing drugs was replaced every two to three days.
(§2) The human U87MG cells or GSCs were seeded at a density of 3×10^3 cells/well. After 24 h, the cells were treated from one to seven days with fresh growth medium containing different concentrations of SA16, SA23 or IB35. Following the treatment period, cell proliferation was determined using the MTS assay according to manufacturer's instruction. The absorbance of formazan at […] was measured in a colorimetric assay with an automated plate reader (Victor Wallac 2, Perkin Elmer). The results were calculated by subtracting the mean background from the values obtained from each evaluation and were expressed as the percentage of the control (untreated cells). Sigmoid dose-response curve was generated, from which the IC50 values were derived.
As representative GBM cell line, the above U87MG cells were used; this human cell line resulted an appropriate model to study the effects of PDK1 inhibition, because it is deficient for the tumour suppressor phosphatase and tensin homologue (PTEN), a negative regulator of the PI3K/AKT pathway (Wang, S. I., et al., Somatic mutations of PTEN in glioblastoma multiforme. Cancer research, 1997. 57(19): p. 4183-4186). To examine the effects of SA16, SA23 and IB35 on GBM cell growth/survival, U87MG cells were incubated with different concentrations of the new compounds (1 nM-10 μM) for 24 and 72 h. Specifically, U87MG cells were treated in complete medium with different concentrations of SA16, SA23 or IB35 (1 nM-10 μM) for 24 h (A) or 72 h (B). At the end of treatment, cell proliferation was measured using the MTS assay. The data are expressed as a percentage with respect to that of untreated cells (control), which was set to 100%, and are the mean values±SEM of three independent experiments, each performed in duplicate. The significance of the differences reported in FIGS. 1 and 2 was determined with a one-way ANOVA with Bonferroni post-test (* p<0.05, **p<0.01, *** p<0.001 vs. control cells).

[1] = tested on: GSCs isolated from U87MG cells; experiment: GSC proliferation, MTS assay; format: cell-based, human; settings: Homo sapiens, U-87 MG, 168 h; seven days of treatment, MTS assay
Protocol: as §1, §2
The inhibition of PDK1 has been reported as potentially effective therapeutic approach to reduce self-renewal and propagation of GSCs (Signore, M., et al., Combined PDK1 and CHK1 inhibition is required to kill glioblastoma stem-like cells in vitro and in vivo. Cell death & disease, 2014. 5(5): p. e1223). On this basis, the effects of SA16, SA23 and IB35 on GSCs, isolated from U87MG cells as previously reported, were evaluated (Daniele, S., et al., Modulation of A1 and A28 adenosine receptor activity: a new strategy to sensitise glioblastoma stem cells to chemotherapy. Cell death & disease, 2014. 5(11): p. e1539). U87MG-derived GSCs were incubated with the indicated concentrations of IB35, SA23 or SA16 for four days (FIG. 8) or seven days (FIG. 9). At the end of the treatment periods, cell proliferation was measured using the MTS assay. The data were expressed as a percentage with respect to that of untreated cells (control), which was set to 100%, and are the mean values±SEM of three independent experiments, each performed in duplicate. IC50 values after seven days of treatment were calculated from sigmoid dose-response curve (FIG. 9). The significance of the differences was determined with a one-way ANOVA with Bonferroni post-test (** p<0.01, *** p<0.001 vs. control).

PDK1 Direct kinase, sequence (O15530 whole entry): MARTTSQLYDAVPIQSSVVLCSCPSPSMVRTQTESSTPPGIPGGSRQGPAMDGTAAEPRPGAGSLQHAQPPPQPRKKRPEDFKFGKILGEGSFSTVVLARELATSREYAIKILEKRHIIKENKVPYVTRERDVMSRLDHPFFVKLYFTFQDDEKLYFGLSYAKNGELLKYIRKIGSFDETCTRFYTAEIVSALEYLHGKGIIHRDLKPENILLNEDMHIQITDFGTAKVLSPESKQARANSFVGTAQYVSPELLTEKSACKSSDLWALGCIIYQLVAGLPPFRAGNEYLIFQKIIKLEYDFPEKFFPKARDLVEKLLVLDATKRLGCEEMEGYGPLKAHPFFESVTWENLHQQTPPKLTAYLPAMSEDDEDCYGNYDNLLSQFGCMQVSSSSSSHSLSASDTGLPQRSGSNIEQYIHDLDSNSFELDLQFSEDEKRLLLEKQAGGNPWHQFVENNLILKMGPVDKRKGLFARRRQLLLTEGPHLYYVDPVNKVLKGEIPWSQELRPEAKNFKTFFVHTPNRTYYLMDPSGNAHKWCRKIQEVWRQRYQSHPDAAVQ

IC50 (U87MG cells) [nM]	IC50 [1] [nM]	Structure (SMILES)	inhibition at 10 µM (PDK1 Direct kinase) [%]	IC50 (PDK1 Direct kinase) [nM]
		O=C1Nc2ccc(NC(=O)c3cccc(NC(=O)c4cccn(Cc5ccc(F)c(F)c5)c4=O)c3)cc2C1=Cc1cccs1 (mixture of isomers) [DD41, (E/Z)-1-(3,4-difluorobenzyl)-2-oxo-N-(3-((2-oxo-3-(thiophen-2-ylmethylene)indolin-5-yl)carbamoyl)phenyl)-1,2-dihydropyridine-3-carboxamide]	26	
		O=C(CCCNC(=O)c1cccn(Cc2ccc(F)c(F)c2)c1=O)Nc1ccc2c(c1)C(=Cc1cccs1)C(=O)N2 (mixture of isomers) [DF9, (E/Z)-1-(3,4-difluorobenzyl)-2-oxo-N-(4-oxo-4-((2-oxo-3-(thiophen-2-ylmethylene)indolin-5-yl)amino)butyl)-1,2-dihydropyridine-3-carboxamide]	> 50	5880
		O=C(CNC(=O)c1cccn(Cc2ccc(F)c(F)c2)c1=O)Nc1ccc2c(c1)C(=Cc1cccs1)C(=O)N2 (mixture of isomers) [IB36, (E/Z)-1-(3,4-difluorobenzyl)-2-oxo-N-(2-oxo-2-((2-oxo-3-(thiophe-2-ylmethylene)indolin-5-yl)amino)ethyl)-1,2-dihydropyridine-3-carboxamide]	19	
		O=C(CCNC(=O)c1cccn(Cc2ccc(F)c(F)c2)c1=O)Nc1ccc2c(c1)/C(=C/c1cnc[nH]1)C(=O)N2 [DD21, (Z)—N-(3-((3-((1H-imidazol-5-yl)methylene)-2-oxoindolin-5-yl)amino)-3-oxopropyl)-1-(3,4-difluorobenzyl)-2-oxo-1,2-dihydropyridine-3-carboxamide]	> 50	
		O=C(CCNC(=O)c1cccn(Cc2ccc(F)c(F)c2)c1=O)Nc1ccc2c(c1)/C(=C/c1cccs1)C(=O)N2 [DD22, (E/Z)-1-(3,4-difluorobenzyl)-2-oxo-N-(3-oxo-3-((2-oxo-3-(thiophen-2-ylmethylene)indolin-5-yl)amino)propyl)-1,2-dihydropyridine-3-carboxamide]	> 50	1340
		O=C(CCNC(=O)c1cccn(Cc2ccc(F)c(F)c2)c1=O)Nc1ccc2c(c1)/C(=C/c1ccc(F)cc1)C(=O)N2 [DD23, (Z)-1-(3,4-difluorobenzyl)-N-(3-((3-(4-fluorobenzylidene)-2-oxoindolin-5-yl)amino)-3-oxopropyl)-2-oxo-1,2-dihydropyridine-3-carboxamide]	15	
		O=C(CCNC(=O)c1cccn(Cc2ccc(F)c(F)c2)c1=O)Nc1ccc2c(c1)/C(=C/c1ncc[nH]1)C(=O)N2 [DD25, (Z/E)-N-(3-((3-((1H-imidazol-2-yl)methylene)-2-oxoindolin-5-yl)amino)-3-oxopropyl)-1-(3,4-difluorobenzyl)-2-oxo-1,2-dihydropyridine-3-carboxamide]	47	
		O=C(CCCNC(=O)c1cccn(Cc2ccc(F)c(F)c2)c1=O)Nc1ccc2c(c1)/C(=C/c1cnc[nH]1)C(=O)N2 [DF8, (Z)-N-(4-((3-((1H-imidazol-5-yl)methylene)-2-oxoindolin-5-yl)amino)-4-oxobutyl)-1-(3,4-difluorobenzyl)-2-oxo-1,2-dihydropyridine-3-carboxamide]	> 50	
50 ± 2.8	15 ± 1.2	CO[C@H]1C[C@@H]2CC[C@@H](C)[C@@](O)(O2)C(=O)C(=O)N2CCCC[C@H]2C(=O)O[C@H]([C@H](C)C[C@@H]2CC[C@@H](OCCO)[C@H](OC)C2)CC(=O)[C@H](C)/C=C(\C)[C@@H](O)[C@@H](OC)C(=O)[C@H](C)C[C@H](C)/C=C/C=C/C=C/1C [Everolimus, reference compound]		
		O=C(CNC(=O)c1cccn(Cc2ccc(F)c(F)c2)c1=O)Nc1ccc2c(c1)CC(=O)N2 [IB32, 1-(3,4-difluorobenzyl)-2-oxo-N-(2-oxo-2-((2-oxoindolin-5-yl)amino)ethyl)-1,2-dihydropyridine-3-carboxamide]	> 50	6680
		O=C1Nc2ccc(NC(=O)c3cccn(Cc4ccc(F)c(F)c4)c3=O)cc2/C1=C/c1cnc[nH]1 [JJ31, (Z)—N-(3-((1H-imidazol-5-yl)methylene)-2-oxoindolin-5-yl)-1-(3,4-difluorobenzyl)-2-oxo-1,2-dihydropyridine-3-carboxamide]	> 50	512
